Source: patent US12600729B2, “New-type benzazepine fused ring derivative” (SHANGHAI JEYOU PHARMACEUTICAL CO., LTD., priority 2021, dated 2026)
Where two headings read alike, the source gives them in different places. Blank lines part the entries; values can stand above or below the compound they belong to.

Legend:
[1] = molecular target: T1, human vasopressin receptor V2R (Homo sapiens, UniProt P30518); assay: Inhibition of vasopressin-induced activation of V2R (cAMP HTRF in HeLa-V2R cells); assay type: cell-based; settings: AVP 2.25 nM, read-out: IC50, inhibition of cAMP increase in human cervical cancer cells (Human V2R Hela-Stable cell line OE2)
T1 construct: host or cells: HeLa (lentivirus infection, puromycin selection)
T1 sequence (P30518 whole entry): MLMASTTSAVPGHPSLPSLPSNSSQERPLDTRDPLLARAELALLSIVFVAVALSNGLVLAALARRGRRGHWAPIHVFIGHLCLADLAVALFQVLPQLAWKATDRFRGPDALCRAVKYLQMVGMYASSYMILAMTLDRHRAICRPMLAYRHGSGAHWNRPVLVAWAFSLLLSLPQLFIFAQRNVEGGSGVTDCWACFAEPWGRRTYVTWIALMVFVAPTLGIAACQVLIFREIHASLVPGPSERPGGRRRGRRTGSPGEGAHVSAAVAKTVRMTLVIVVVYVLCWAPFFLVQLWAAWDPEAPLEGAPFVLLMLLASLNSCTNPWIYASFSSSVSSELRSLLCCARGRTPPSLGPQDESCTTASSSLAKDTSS
Method: HeLa-V2R cells were incubated with DMEM medium supplemented with 10% fetal bovine serum under the condition of 37° C. and 5% CO2, and the medium was added with 2 μg/mL puromycin to continuously screen cells expressing V2R. On the day of the experiment, the cells were digested with trypsin, washed twice with the stimulation buffer in the cAMP-GS HIRANGE kit, resuspended, and counted to prepare 1.6×10^6 cells/mL, and IBMX was added until a final concentration of 0.5 mM. 5 μL of cell suspension/well was transferred to a 384-well plate. To the corresponding wells were added 2.5 μL of various concentrations of the test compounds (3-fold dilution from 10 μM, 10 concentration gradients) or DMSO (minimum value Min, maximum value Max as a control), respectively. […]. At the same time, cAMP standard samples (3-fold dilution from 5.6 μM, 10 concentration points) were prepared, and 10 μL of cAMP standard samples were transferred to corresponding wells of a 384-well plate. The cAMP-d2 fluorescence and anti-cAMP antibody probes provided in the kit were 20-fold diluted by the lysis buffer in the cAMP-GS HIRANGE kit. To each well of a 384-well plate was sequentially added 5 μL of each diluted reagent. The above mixture in each well was mixed well, centrifuged briefly, incubated at 25° C. for 2 hours, and tested. The sample was tested by the HTRF method with the Envision microplate reader to determine the fluorescence intensity at 615 nm and 665 nm. Each test sample was tested in duplicate, with 32 replicates for both Min and Max, respectively.
The fluorescence intensity ratio FI665/615 at the wavelength of 665 nm and 615 nm of the samples in each well was calculated. The logarithm of the concentration of the standard was taken as X, and FI665/615×1000 as the Y value, and the standard curve was obtained by fitting the “log(inhibitor) vs response-variable slope (four parameters)” model in Prism 8.0 software. FI665/615×1000 of the test well was taken as the Y value, and the cAMP concentration corresponding to each sample was calculated in the Prism 8.0 software according to the above standard curve.
% Inhibition (inhibition percentage) calculation formula is as follows: % inhibition=(Cmax−Ccmpd)/(Cmax−Cmin)×100
wherein Cmax is the average calculated value of cAMP concentration in all maximum wells; Cmin is the average calculated value of cAMP concentration in all minimum wells; Ccmpd is the calculated value of cAMP concentration of the test compound.
% Inhibition (inhibition percentage) was taken as the Y value, and the logarithmic value of the compound concentration was taken as the X value, and the IC50 was calculated by nonlinear regression with “log(inhibitor) vs response-variable slope (four parameters)” model in Prism 8.0 software, wherein Y=Bottom+(Top−Bottom)/(1+10^((Log IC50−X)×Hill Slope)).

LLC-PK1 cells = assay: AVP-induced LLC-PK1 cell proliferation assay; assay type: cell-based, Porcine; set-up: Proliferation inhibition grading, Repeated experiment I / Proliferation inhibition grading, Repeated experiment II: key to the marks not given beside the values; settings: for Proliferation inhibition grading, Repeated experiment I / Proliferation inhibition grading, Repeated experiment II: LLC-PK1, AVP 10 nM, verapamil 5 μM, graded against Tolvaptan; for hook effect in AVP-induced LLC-PK1 cell proliferation: high concentration, up to 3 μM
Method: Porcine renal epithelial cell LLC-PK1: purchased from ATCC, Cat #CL-101 The pathogenesis of polycystic kidney disease is related to the low intracellular calcium ion concentration of renal collecting duct epithelial cells and the cAMP-dependent excessive proliferation of cells. […] LLC-PK1 cells were incubated with M199 medium supplemented with 10% fetal bovine serum under the condition of 37° C. and 5% CO2. On the first day of the experiment, a 96-well plate was coated with 0.01% Poly-D-lysine, then each well of the plate was added with 100 μL of the above mixture. After standing at room temperature for 10 minutes, the mixture in each well was aspirated and air-dried at room temperature for 1 hour, and washed once with 200 μL 1×PBS for further use. LLC-PK1 cells were digested with trypsin, resuspended with serum-free M199 after centrifugation, counted, diluted into 1×10^5/mL cell suspension with serum-free M199 medium, and added with FBS until 1% final concentration. To a 96-well plate was transfered 200 μL of cell suspension/well. After the cells were incubated for 24 hours, the supernatant of the formulated solution was aspirated, and the cells were washed once with 200 μL of PBS. Then 160 μL of M199 medium containing 0.05% FBS and 20 μL of 10×Verapamil (final concentration of 5 μM) were sequentially added thereto, and the culture was continued for 24 hours. To the corresponding wells was respectively added 10 μL of various concentrations of the test compound (final concentration starting from 3 μM, 3-fold dilution, 8 concentration gradients) or DMSO (Min, and Max as a control) on the third day. […] On the fifth day, the culture medium was carefully aspirated. The cells were washed once with 200 μL of PBS. 90 μL of M199 serum-free medium was carefully added thereto, and then 10 μL of Alamarblue reagent was added thereto. The mixture was centrifuged at 300 rpm for 1 minute, incubated at 37° C. for 2 hours, and then tested. SpectraMax instrument was used for the sample test. The excitation light was 560 nm, and the emission light was 595 nm. Each test sample was tested in triplicate, with 6 replicates for both Min and Max, respectively. The concentration of the compound was taken as the X value, and the average value of the fluorescence intensity of each experimental well sample minus the fluorescence intensity of the background well was taken as the Y value, which represented the number of living cells in the well at the time of testing. The Grouped-Summary data-Separated bar graph in GraphPad Prism 8.0 software was used to make a bar chart for reflecting the dose-effect relationship of different compounds on AVP-induced cell proliferation. […] Data quality control: […]

human V2R = molecular target: T2, human V2R (Homo sapiens, UniProt P30518); assay: Competitive isotope ligand binding, V2 receptor
T2 construct: purchased Perkinelmer, USA
T2 sequence (P30518 whole entry): as above
Method: (§1) The cells with high expression of human V1a receptor were amplified, collected, washed twice with PBS, resuspended with PBS containing a protease inhibitor, homogenized with a homogenizer at 15000 r/min to break the cells, and centrifuged at 4° C. and 3000 r/min for 15 minutes. The supernatant was collected, centrifuged at 20,000 r/min at 4° C. for 45 minutes. Then the supernatant was discarded to obtain a cell membrane precipitation. Buffer was added to resuspend to measure the protein concentration, aliquoted, and stored at −80° C. The cell membranes of highly expressed human V1b and V2 receptors were purchased from Perkinelmer, USA.
(§2) The stock solution of the test compound and that of the positive control were diluted to 1 mM (10-fold dilution) and 0.1 mM (100-fold dilution) with DMSO, respectively, and then sequentially subjected to a four-fold dilution with DMSO to the tenth point.
(§3) Cell membranes overexpressing human receptors were prepared with assay buffer to 5 mg/mL.
(§4) • 1. 1 μL of the compound was aspirated from the dilution plate into each well of the 96-well assay plate (the concentration of the test compound in the reaction would be diluted 100-fold). To the control well was added 1 μL of DMSO. • 2. 10 mL of membrane solution containing 5 μg/μL was prepared. • 3. To the compound assay plate was added the membrane solution from step 2 with a pipette, and each well was added with 89 μL of the membrane solution. • 4. […] The configured test plate was placed at 30° C. and incubated for 60 minutes. • 6. The membrane complexes were collected into 0.5% PEI pre-coated GF/B plate with Cell Harvester, washed 3 times with 2 mL of pre-cooled elution buffer at 4° C., and dried at 37° C. for 2 hours. • 7.
(§5) Y=Bottom+(Top−Bottom)/(1+10^((X−Log IC50))), wherein: Y is the reading value of the liquid scintillation counter, and X is the logarithmic value of the compound concentration.

[2] = In vivo pharmacokinetics in mice, oral administration; settings: male CD1 mice, oral 10 mg/kg; for AUC(0-inf) / Cmax / half-life: mouse, plasma
Method: In this experimental example, in vivo pharmacokinetic evaluations were performed on mice by intravenous injection and oral administration.
Experimental methods and conditions: Male CD1 mice, 6 to 8 weeks old with free access to food and water, were administered by oral gavage with a dosage of 10 mg/kg (solvent 5% DMSO/10% Solutol/85% Saline). 15 minutes, 30 minutes, 1 hour, 2 hours, 4 hours, 8 hours, 10 hours, 24 hours after administration, blood samples were collected. Each sample was collected in a volume of 150 μL and anticoagulated with heparin sodium, placed on ice after collection, and centrifuged within 1 hour to separate the test plasma. The plasma concentration in plasma was tested by liquid chromatography-tandem mass spectrometry (LC/MS/MS), and pharmacokinetic parameters were calculated using Phoenix WinNonlin software via the measured concentration.

human V1bR = molecular target: T3, human V1bR (Homo sapiens, UniProt P47901); assay: Competitive isotope ligand binding, V1b receptor
T3 construct: purchased Perkinelmer, USA
T3 sequence (P47901 1-424): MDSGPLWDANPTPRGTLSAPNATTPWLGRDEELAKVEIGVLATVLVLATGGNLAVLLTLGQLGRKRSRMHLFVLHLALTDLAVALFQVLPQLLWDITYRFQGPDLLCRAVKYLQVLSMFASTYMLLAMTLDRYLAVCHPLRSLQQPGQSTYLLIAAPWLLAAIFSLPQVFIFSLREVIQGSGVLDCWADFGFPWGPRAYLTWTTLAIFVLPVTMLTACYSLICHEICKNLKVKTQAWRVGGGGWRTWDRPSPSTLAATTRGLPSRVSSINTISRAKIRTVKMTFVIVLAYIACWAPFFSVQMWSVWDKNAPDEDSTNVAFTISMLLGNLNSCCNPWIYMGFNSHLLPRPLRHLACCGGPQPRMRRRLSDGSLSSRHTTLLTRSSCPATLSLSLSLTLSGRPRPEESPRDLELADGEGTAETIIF
Method: as §1, §2, §3, §4, §5

human V1aR = molecular target: T4, human V1aR (Homo sapiens, UniProt P37288); assay: Competitive isotope ligand binding, V1a receptor
T4 construct: expressed in transfected cells; membranes prepared in house
T4 sequence (P37288 whole entry): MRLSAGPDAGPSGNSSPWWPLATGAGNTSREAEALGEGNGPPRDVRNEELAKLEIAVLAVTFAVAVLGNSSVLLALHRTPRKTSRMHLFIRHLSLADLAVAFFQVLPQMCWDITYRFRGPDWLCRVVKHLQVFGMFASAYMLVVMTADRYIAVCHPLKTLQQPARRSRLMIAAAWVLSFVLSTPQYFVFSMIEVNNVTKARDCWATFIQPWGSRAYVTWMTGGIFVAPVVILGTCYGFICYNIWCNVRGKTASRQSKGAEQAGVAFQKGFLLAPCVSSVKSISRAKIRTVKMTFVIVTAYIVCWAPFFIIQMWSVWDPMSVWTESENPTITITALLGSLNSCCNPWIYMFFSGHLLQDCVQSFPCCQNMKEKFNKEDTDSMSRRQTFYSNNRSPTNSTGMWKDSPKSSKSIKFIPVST
Method: as §1, §2, §3, §4, §5

[3] = read-out: Binding affinity V1bR, N = 2, isotope-labeled vasopressin […], experiment 2, bound printed in μM

- IC50 [1]: 7.45 nM
Compound: Cc1ccccc1C(=O)Nc1ccc(C(=O)N2CCC3CCOC3c3cc(Cl)ccc32)c(C)c1 (single isomer, unassigned) [Compound 4]

- IC50 [1]: 61.6 nM
Compound: Cc1ccccc1C(=O)Nc1ccc(C(=O)N2CCC3CCOC3c3cc(Cl)ccc32)c(C)c1 (single isomer, unassigned) [Compound 5]

- IC50 [1]: 31 nM
- binding affinity for V2R compared with V1a (V1a/V2 selectivity) (human V2R): higher than that for V1a
- Ki (human V2R; Binding affinity V2R, N = 1, isotope-labeled vasopressin 1 nM, experiment 1): 2.1 nM
- Ki (human V2R; Binding affinity V2R, N = 2, isotope-labeled vasopressin 1 nM, experiment 2): 2.76 nM
- Ki (human V2R; isotope-labeled vasopressin 1 nM, mean ± spread, read-out: Binding affinity V2R, mean of the two experiments): 2.4 ± 0.3 nM
- F [2]: 73.34%
- AUC(0-inf) [2]: 2030 ng·h/mL
- Cmax [2]: 833 ng/mL
- half-life [2]: 4.44 h
- IC50 (human V1bR): > 10000 nM
- Ki (human V1bR): > 10 µM
- Ki (human V1bR; isotope-labeled vasopressin […], bound given in μM, read-out: Binding affinity V1bR, summary of the two experiments): > 10 µM
- Ki (human V1bR; [3]): > 10 µM
- Ki (human V1aR; Binding affinity V1aR, N = 1, isotope-labeled vasopressin […], experiment 1): 19.7 nM
- Ki (human V1aR; Binding affinity V1aR, N = 2, isotope-labeled vasopressin […], experiment 2): 11.1 nM
- Ki (human V1aR; isotope-labeled vasopressin […], mean ± spread, read-out: Binding affinity V1aR, mean of the two experiments): 15.4 ± 4.3 nM
Compound: O=C(Nc1ccc(C(=O)N2CC[C@@H]3CCN[C@H]3c3cc(Cl)ccc32)cn1)c1ccccc1C(F)(F)F (single isomer, unassigned) [Compound 10A]
- Proliferation inhibition grading, Repeated experiment I (LLC-PK1 cells): +++
- Proliferation inhibition grading, Repeated experiment II (LLC-PK1 cells): +++

- IC50 [1]: 14.7 nM
Compound: Cc1ccccc1C(=O)Nc1ccc(C(=O)N2CCC3CCNC3c3cc(Cl)ccc32)c(C)c1 (stereo not drawn) [Compound 1]
- dose-response compared with Tolvaptan (LLC-PK1 cells; AVP-induced LLC-PK1 cell proliferation): superior to that of Tolvaptan
- hook effect in AVP-induced LLC-PK1 cell proliferation (LLC-PK1 cells): no hook effect

- IC50 [1]: 32.6 nM
Compound: O=C(Nc1ccc(C(=O)N2CCC3CCNC3c3cc(Cl)ccc32)cn1)c1ccccc1C(F)(F)F (stereo not drawn) [Compound 2]

- IC50 [1]: 84.7 nM
Compound: CN1CCC2CCN(C(=O)c3ccc(NC(=O)c4ccccc4C(F)(F)F)nc3)c3ccc(Cl)cc3[C@H]21 (stereo partly drawn) [Compound 3A]

- IC50 [1]: 3.85 nM
Compound: Cc1ccccc1C(=O)Nc1ccc(C(=O)N2CCC3COC3c3cc(Cl)ccc32)c(C)c1 (stereo not drawn) [Compound 6]

- IC50 [1]: 92.7 nM
Compound: Cc1cc(NC(=O)c2ccccc2Cl)ccc1C(=O)N1CCC2CNC2c2cc(Cl)ccc21 (stereo not drawn) [Compound 7]

- IC50 [1]: 69.5 nM
Compound: O=C(Nc1ccc(C(=O)N2CCC3CCNC3c3cc(Cl)ccc32)cn1)c1ccccc1C(F)(F)F (stereo not drawn) [Compound 8]

- F [2]: 44%
- AUC(0-inf) [2]: 1610 ng·h/mL
- Cmax [2]: 1310 ng/mL
- half-life [2]: 1.58 h
- IC50 (human V1bR): > 10000 nM
- Ki (human V1bR; read-out: Binding affinity V1bR, N = 1, isotope-labeled vasopressin […], experiment 1, bound printed in μM): > 10 µM
- Ki (human V1bR; [3]): > 10 µM
- Ki (human V1bR; read-out: Binding affinity V1bR, summary of the two experiments): > 10 µM
Compound: Cc1ccccc1C(=O)Nc1ccc(C(=O)N2CCCC(O)c3cc(Cl)ccc32)c(C)c1 (stereo not drawn) [Reference substance 1, Tolvaptan, reference compound]
- Proliferation inhibition grading, Repeated experiment I (LLC-PK1 cells): ++
- Proliferation inhibition grading, Repeated experiment II (LLC-PK1 cells): ++
- hook effect in AVP-induced LLC-PK1 cell proliferation (LLC-PK1 cells): high-concentration pro-proliferative hook effect
